According to patent US20230233541A1, “SUBSTITUTED BENZAMIDES AS MODULATORS OF TREX1” (Constellation Pharmaceuticals, Inc., priority 2020, published 2023):

How the values were obtained:
full length human TREX1 = biological target: T1, full length human TREX1 (Homo sapiens, UniProt Q9NSU2); assay: TREX1 Biochemical Assay (fluorescence assay, degradation of dsDNA substrate); conditions: 150 pM TREX1, 60 nM dsDNA substrate, 25 minutes at room temperature; read-out: hTREX1 EC50
T1 construct: N-terminally His-Tev tagged full length human TREX1; His-Tev (His tag with TEV protease site) (N); made in house; host or cells: E. coli
T1 sequence (Q9NSU2 1-314): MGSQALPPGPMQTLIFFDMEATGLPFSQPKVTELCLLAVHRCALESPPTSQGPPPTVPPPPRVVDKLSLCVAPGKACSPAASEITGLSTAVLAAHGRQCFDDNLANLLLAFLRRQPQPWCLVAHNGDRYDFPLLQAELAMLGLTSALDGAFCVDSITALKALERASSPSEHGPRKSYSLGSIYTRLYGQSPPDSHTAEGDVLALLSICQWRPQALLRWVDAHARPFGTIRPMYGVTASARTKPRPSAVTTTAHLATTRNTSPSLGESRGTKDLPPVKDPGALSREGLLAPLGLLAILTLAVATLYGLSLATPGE
Outline: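 E. coli-expressed His-Tev-tagged full-length TREX1 (150 pM) with 60 nM quenched-fluorophore dsDNA in Tris pH 7.4, 150 mM NaCl, 100 mM MgCl2, 1% DMSO, 25 min room temperature, 10-point dose-response. EDTA stop; fluorescence 615 nm (ex 570 nm); IC50 from four-parameter fit against pre-quenched and no-inhibitor controls.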

[1] = biological target: T2, human TREX2 (residues M44-A279) (Homo sapiens, UniProt Q9BQ50); assay: TREX2 Biochemical Assay (fluorescence assay, degradation of dsDNA substrate); conditions: 2.5 nM TREX2, 60 nM dsDNA substrate, 25 minutes at room temperature; read-out: hTREX2 EC50
T2 construct: human TREX2 (residues M44-A279, expressed in E. coli); His-Tev (His tag with TEV protease site) (N); made in house; host or cells: E. coli
T2 sequence (Q9BQ50 44-279 isoform Q9BQ50-1): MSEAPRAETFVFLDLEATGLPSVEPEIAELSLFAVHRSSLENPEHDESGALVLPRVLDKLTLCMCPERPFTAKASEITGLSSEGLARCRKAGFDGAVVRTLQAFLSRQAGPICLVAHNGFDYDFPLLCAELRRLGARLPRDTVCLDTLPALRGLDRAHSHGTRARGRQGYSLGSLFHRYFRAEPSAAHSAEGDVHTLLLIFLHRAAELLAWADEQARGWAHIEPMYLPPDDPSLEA
Outline: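 His-Tev-tagged human TREX2 (M44-A279, E. coli-expressed) at 2.5 nM final, with 60 nM TEX615/quencher-labelled dsDNA in pH 7.4 Tris buffer with MgCl2 and 1.0% DMSO, 10-point dose-response, 25 min at room temperature, then EDTA quench. Fluorescence read at 615 nm (ex 570 nm). IC50 from four-parameter fit against pre-quenched and no-inhibitor controls.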

| SMILES | EC50 (full length human TREX1) [µM] | EC50 [1] [µM] |
| --- | --- | --- |
| O=C(c1cc(F)cc(F)c1)N(Cc1ccc(-c2ccn[nH]2)nc1)Cc1ccccc1Cl [Compound 170] | < 0.1 | 10 to 100 |
| N#CC[C@H](c1cccc(Cl)c1Cl)N(Cc1cccnc1)C(=O)c1cc(F)cc(F)c1 [Compound 235] | < 0.1 | 1 to 10 |
| O=C(c1ccon1)N(Cc1cccnc1)Cc1ccc(Cl)cc1Cl [Compound 118] | > 10 | > 100 |
| O=C(c1ccc(Br)cc1)N(Cc1cccnc1)Cc1ccc(Cl)cc1Cl [Compound 6] | 1 to 10 | > 100 |
| O=C(c1cccc(Cl)c1)N(Cc1cccnc1)Cc1cc(Cl)cc(Cl)c1 [Compound 34] | > 10 | > 100 |
| O=C(c1cccc(F)c1)N(Cc1cccnc1)Cc1cccc(F)c1Cl [Compound 137] | 0.1 to 1 | 10 to 100 |
| O=C(c1cccc(Br)c1)N(Cc1cccnc1)Cc1cc(Cl)cc(Cl)c1 [Compound 30] | > 10 | > 100 |
| COc1cc(Br)cc(C(=O)N(Cc2cccnc2)Cc2cc(Cl)cc(Cl)c2)c1 [Compound 52] | > 10 | > 100 |
| COCC(=O)N(Cc1cccnc1)Cc1ccc(Cl)cc1Cl [Compound 92] | > 10 | > 100 |
| Cc1cc(C(=O)O)ncc1CN(Cc1cccc(Cl)c1Cl)C(=O)c1cc(F)cc(F)c1 [Compound 205] | < 0.1 | < 1 |
| O=C(O)c1ccc(CN(Cc2cccc(Cl)c2Cl)C(=O)c2cccc(F)c2)cn1 [Compound 147] | < 0.1 | 1 to 10 |
| CC[C@@H](c1cccc(OC2COC2)c1Cl)N(Cc1ccc(C(=O)O)nc1)C(=O)c1cc(F)cc(F)c1 [Compound 232] | < 0.1 | 10 to 100 |
| N#CC[C@@H](c1cccc(Cl)c1Cl)N(Cc1cccnc1)C(=O)c1cc(F)cc(F)c1 [Compound 234] | 1 to 10 | 10 to 100 |
| O=C(O)c1ccc(CN(Cc2ccccc2C(F)(F)F)C(=O)c2cc(F)cc(F)c2)cn1 [Compound 172] | < 0.1 | 1 to 10 |
| O=C(c1cc(F)cc(F)c1)N(Cc1cccnc1)[C@@H](CCO)c1ccc(Cl)cc1Cl [Compound 261] | 0.1 to 1 | 10 to 100 |
| C[C@@H](c1ccc(Cl)cc1Cl)N(Cc1cccnc1)C(=O)c1cccc(F)c1 [Compound 156] | > 10 | > 100 |
| NC(=O)c1ccc(CN(Cc2cccc(Cl)c2Cl)C(=O)c2cc(F)cc(F)c2)cn1 [Compound 150] | 1 to 10 | > 100 |
| O=C(c1cc(F)cc(F)c1)N(Cc1cnccc1Cl)Cc1cnccc1Cl [Compound 176] | 0.1 to 1 | 1 to 10 |
| O=C(c1cc(Br)c(O)c(Br)c1)N(Cc1cccnc1)Cc1cc(Cl)cc(Cl)c1 [Compound 53] | > 10 | 10 to 100 |
| O=C(c1ccc(O)cc1)N(Cc1cccnc1)Cc1cc(Cl)cc(Cl)c1 [Compound 48] | > 10 | > 100 |
| O=C(C1CCC(O)CC1)N(Cc1cccnc1)Cc1ccc(Cl)cc1Cl (stereo not drawn) [Compound 86] | > 10 | > 100 |
| O=C(c1ccc(Oc2ccc(Br)cc2)cc1)N(Cc1cccnc1)Cc1cc(Cl)cc(Cl)c1 [Compound 77] | > 10 | > 100 |
| COc1cccc([C@@H](C)N(Cc2ccc(-c3ccn[nH]3)nc2)C(=O)c2cc(F)cc(F)c2)c1Cl [Compound 225] | 0.1 to 1 | 10 to 100 |
| C[C@@H](c1cccc(Cl)c1Cl)N(Cc1ccc(C(=O)O)nc1)C(=O)c1cc(F)cc(F)c1 [Compound 174] | < 0.1 | < 1 |
| O=C(c1cccc(F)c1)N(Cc1cccnc1)C1Cc2ccccc2C1 [Compound 134] | > 10 | > 100 |
| O=C(c1cc(F)cc(F)c1)N(Cc1cccnc1CO)Cc1cccc(Cl)c1Cl [Compound 180] | 0.1 to 1 | 1 to 10 |
| NCCC[C@@H](c1cccc(Cl)c1Cl)N(Cc1cccnc1)C(=O)c1cc(F)cc(F)c1 [Compound 248] | < 0.1 | 10 to 100 |

| SMILES | EC50 (full length human TREX1) [µM] | EC50 [1] [µM] |
| --- | --- | --- |
| O=C(c1ccc(F)cc1)N(Cc1cccnc1)Cc1ccc(Cl)cc1Cl [Compound 98] | > 10 | > 100 |
| COc1ccccc1CN(Cc1cccnc1)C(=O)c1cccc(F)c1 [Compound 125] | > 10 | > 100 |
| O=C(c1cccc(F)c1)N(CCc1ccc(Cl)cc1Cl)Cc1cccnc1 [Compound 133] | > 10 | > 100 |
| CC[C@@H](c1ccc(Cl)cc1Cl)N(Cc1cccnc1)C(=O)c1cccc(F)c1 (single isomer, unassigned) [Compound 158] | 1 to 10 | 10 to 100 |
| O=C(c1ccc(Cl)cc1)N(Cc1cccnc1)Cc1cc(Cl)cc(Cl)c1 [Compound 29] | > 10 | > 100 |
| O=C(c1cnco1)N(Cc1cccnc1)Cc1ccc(Cl)cc1Cl [Compound 117] | > 10 | > 100 |
| O=C(O)c1ccc(CN(Cc2ncc3ccccc3c2Cl)C(=O)c2cc(F)cc(F)c2)cn1 [Compound 190] | < 0.1 | 1 to 10 |
| O=C(c1ccc(F)cn1)N(Cc1cccnc1)Cc1ccc(Cl)cc1Cl [Compound 99] | > 10 | > 100 |
| O=C(c1cccc(-c2ccccc2)c1)N(Cc1cccnc1)Cc1ccc(Cl)cc1Cl [Compound 43] | > 10 | > 100 |
| O=C(c1ccc(O)c(C(F)(F)F)c1)N(Cc1cccnc1)Cc1cc(Cl)cc(Cl)c1 [Compound 72] | > 10 | > 100 |
| C[C@@H](c1cccnc1)N(Cc1ccc(Cl)cc1Cl)C(=O)c1cccc(F)c1 (single isomer, unassigned) [Compound 154] | > 10 | > 100 |
| O=C(c1ccc(F)c(Br)c1)N(Cc1cccnc1)Cc1cc(Cl)cc(Cl)c1 [Compound 38] | > 10 | > 100 |
| N#CCC[C@@H](c1ccccc1Cl)N(Cc1cccnc1)C(=O)c1cc(F)cc(F)c1 [Compound 177] | 0.1 to 1 | 10 to 100 |
| O=C(c1cccc(F)c1)N(Cc1ccccn1)Cc1ccc(Cl)cc1Cl [Compound 95] | > 10 | > 100 |
| N#Cc1ccc(C(=O)N(Cc2cccnc2)Cc2ccc(Cl)cc2Cl)cc1 [Compound 103] | > 10 | > 100 |
| O=C(c1ccc(Oc2ccccc2)cc1)N(Cc1cccnc1)Cc1ccc(Cl)cc1Cl [Compound 33] | > 10 | > 100 |
| O=C(c1ccc(F)c(F)c1F)N(Cc1cccnc1)Cc1ccc(Cl)cc1Cl [Compound 123] | 1 to 10 | > 100 |
| CC[C@H](c1cccc(OC)c1C(F)(F)F)N(Cc1ccc(C(=O)O)nc1)C(=O)c1cc(F)cc(F)c1 [Compound 196] | < 0.1 | < 1 |
| CC(=O)Nc1ccc(CN(Cc2cccc(Cl)c2Cl)C(=O)c2cccc(F)c2)cn1 [Compound 214] | 1 to 10 | > 100 |
| O=C(c1cccc(F)c1)N(Cc1cccnc1)[C@@H](CO)c1ccc(Cl)cc1Cl (single isomer, unassigned) [Compound 161] | > 10 | 10 to 100 |
| O=C(O)c1ncc(CN(Cc2cccc(Cl)c2Cl)C(=O)c2cc(F)cc(F)c2)cc1O [Compound 257] | < 0.1 | 10 to 100 |
| C[C@H](c1ccc(Cl)cc1Cl)N(Cc1cccnc1)C(=O)c1cccc(F)c1 [Compound 155] | 0.1 to 1 | 10 to 100 |
| CC[C@H](c1cccc(Cl)c1Cl)N(Cc1cnc(C(=O)O)c(N)c1)C(=O)c1cc(F)cc(F)c1 [Compound 239] | < 0.1 | 1 to 10 |
| CCOc1cccc([C@@H](CC)N(Cc2ccc(C(=O)O)nc2)C(=O)c2cc(F)cc(F)c2)c1Cl [Compound 228] | < 0.1 | 1 to 10 |
| COc1cc(Br)cc(C(=O)N(Cc2cccnc2)Cc2ccc(Cl)cc2Cl)c1 [Compound 87] | > 10 | > 100 |
| COC(=O)c1ccc(CN(Cc2ccc(Cl)cc2Cl)C(=O)c2cccc(F)c2)cn1 [Compound 141, methyl 5-({N-[(2,4-dichlorophenyl)methyl]-1-(3-fluorophenyl)formamido}methyl)pyridine-2-carboxylate] | > 10 | > 100 |
| O=C(c1ccc(O)c(Cl)c1)N(Cc1cccnc1)Cc1cc(Cl)cc(Cl)c1 [Compound 35] | > 10 | > 100 |
